Measured values taken from patent publication US20230233736A1, “ANTIMICROBIAL FORMULATIONS COMPRISING SILICONE” (AMICOAT AS, priority 2020, published 2023).

Key:
[1] = system: Candida tropicalis; test: MIC microbroth dilution (CLSI); assay type: cell-based; conditions: ATCC750 - reference strain
[2] = system: Trichophyton mentagrophytes; test: MIC microbroth dilution (CLSI); assay type: cell-based; conditions: G.R. Micro collection
[3] = system: Trichophyton interdigitale; test: MIC microbroth dilution (CLSI); assay type: cell-based; conditions: G.R. Micro collection
[4] = system: Microsporum canis; test: MIC microbroth dilution (CLSI); assay type: cell-based; conditions: G.R. Micro collection
[5] = system: Cryptococcus neoformans; test: MIC microbroth dilution (CLSI); assay type: cell-based; conditions: G.R. Micro collection
[6] = system: Acinetobacter baumanii; test: MIC microbroth dilution (CLSI); assay type: cell-based; set-up: unit not given beside the values; conditions: antibiotic-susceptible clinical isolate
Source text: (§1) Cation-adjusted Mueller-Hinton broth (Oxoid Ltd., Basingstoke, UK and Trek Diagnostic Systems Ltd., East Grinstead, UK) (supplemented with 5% laked horse blood for Streptococcus spp., Corynebacterium jeikeium and Listeria monocytogenes) was used for aerobic bacteria, with an initial inoculum of approximately 10^5 colony-forming units (CFU)/m L.

[7] = system: Streptococcus pyogenes; assay type: cell-based; conditions: Macrolide (M-type) resistance clinical isolate
Source text: as §1

[8] = system: Bacteroides fragilis; test: MIC microbroth dilution (CLSI); assay type: cell-based; set-up: unit not given beside the values; conditions: ATCC 25285; SBB
[9] = system: Eggerthella lenta; test: MIC microbroth dilution (CLSI); assay type: cell-based; set-up: unit not given beside the values; conditions: ATCC 43055; SBB
[10] = system: trypsin; test: in vitro; assay type: in vitro ADME; conditions: pH 8.6
Description: Each peptide was dissolved in a 0.1 M NH4HCO3 buffer (pH 6.5) to yield a final peptide concentration of 1 mg/ml. A trypsin solution was prepared by dissolving 1 mg of trypsin in 50 ml 0.1 M NH4HCO3 buffer (pH 8.2). For the stability determination, 250 μl freshly made trypsin solution and 250 μl peptide solution were incubated in 2 ml of 0.1 M NH4HCO3 buffer (pH 8.6) at 37° C. on a rocking table. Aliquots of 0.5 ml were sampled at different time intervals, diluted with 0.5 ml water:acetonitrile (60:40 v/v) containing 1% TFA and analysed by RP-HPLC as described above. Samples without trypsin addition taken at 0 h and after 20 h at 37° C. were used as negative controls. Integration of the peak area at 254 nm for samples taken during the first 5 hours of the assay was used to generate the […].

[11] = system: Staphylococcus epidermidis RP62A; test: CFU on silicone prosthetic liner patches; assay type: cell-based; conditions: washed with water
Description: (§2) Bacterial Strains: • Staphylococcus epidermidis RP62A • Staphylococcus hominis 58-69
(§3) Overnight colonies of S. epidermidis or S. hominis were diluted to 0.5 McFarland (1×10^8 CFU/ml) in 0.85% NaCl. The bacterial solution was further diluted in Tryptic Soy Broth media (to 1×10^5 CFU/ml) and drops of 100 μl was applied to the surfaces of the silicone patches. Silicone patches were placed on glass microscope slides, and the glass slides were placed in a moist incubation chamber and incubated for 24 hours at 37° C.
(§4) For determining CFU, the samples were vortexed in 1 ml 0.85% NaCl and serial dilutions (10^−1 to 10^−6) were made. 100 μl aliquots of the serial dilutions were streaked on blood agar plates, and further incubated overnight prior to CFU counting.
(§5) The level of bacterial inhibition was examined by number of CFU and growth zone inhibition. All materials tested were washed with water after completion of the swell and dry procedure to ensure that the activity of the materials was due to internally absorbed AMC-109 only.

[12] = system: Staphylococcus hominis 58-69; test: CFU on silicone prosthetic liner patches; assay type: cell-based; conditions: washed with water
Description: as §2, §3, §4, §5

[13] = system: Staphylococcus epidermidis RP62A; test: Growth inhibition zones around silicone prosthetic liner; assay type: cell-based
Source text: as §2, §5

[14] = system: Staphylococcus hominis 58-69; test: as above; assay type: cell-based
Source text: as §2, §5

[15] = system: Staphylococcus aureus, strain ATCC 25923; conditions: S. aureus ATCC 25923
[16] = system: Methicillin resistant Staphylococcus aureus (MRSA) strain ATCC 33591; conditions: MRSA ATCC 33591
[17] = system: Methicillin resistant Staphylococcus epidermidis (MRSE) strain ATCC 27626; conditions: MRSE ATCC 27626
[18] = system: S. aureus
[19] = system: S. epidermidis
[20] = system: S. aureus (ATCC 8325); test: Modified AATCC 100 method, silicone membrane valves
[21] = system: P. aeruginosa (PAO1); test: as above; conditions: low loading, original surface (A*)
[22] = system: E. coli (5067-6002); test: as above; conditions: low loading, original surface (A*)
[23] = system: S. epidermidis (RP62A); test: as above; conditions: low loading, original surface (A*)

CC(C)(C)c1cc(C(C)(C)C)c2[nH]c(C(C)(C)C)c(CC(NC(=O)C(N)CCCNC(=N)N)C(=O)NC(CCCNC(=N)N)C(=O)NCCc3ccccc3)c2c1 (stereo not drawn) [Compound 2]
MIC [1]: 4
MIC [2]: 8
MIC [3]: 8
MIC [4]: 8
MIC [5]: 4
MIC [6]: 16
MIC [7]: 16
MIC [8]: 64
MIC [9]: 32
half-life at 0.1 mg/ml [10]: > 24 h
CFU ([11]; 5 minutes swell time): 0 CFU/ml
CFU ([11]; 15 minutes swell time): 0 CFU/ml
CFU ([12]; 5 minutes swell time): 0 CFU/ml
CFU ([12]; 15 minutes swell time): 0 CFU/ml
growth inhibition zone ([13]; 5 minutes swell time): 3 mm
growth inhibition zone ([13]; 15 minutes swell time): 3 mm
growth inhibition zone ([14]; 5 minutes swell time): 4 mm
growth inhibition zone ([14]; 15 minutes swell time): 2 mm
MIC [15]: <3 µM
MIC [16]: <3 µM
MIC [17]: <3 µM
minimum inhibitory concentration (MIC) [18]: 2 to 4 µg/mL
minimum inhibitory concentration (MIC) [19]: 2 to 4 µg/mL
CFU (samples containing AMC-109) ([20]; High loading, swell concentration 8.3 mg/ml, original surface (A*)): 0
CFU (samples containing AMC-109) ([20]; Low loading, 1.7 mg/ml, surface created by slicing (B*)): 0
CFU (samples containing AMC-109) ([20]; Low with washing, 3.1 mg/ml, original surface (A*)): 0
CFU (samples containing AMC-109) ([20]; Low with washing, 3.1 mg/ml, surface created by slicing (B*)): 0
CFU (samples containing AMC-109) [21]: 0
CFU (samples containing AMC-109) [22]: 0
CFU (samples containing AMC-109) [23]: 0
